In article PMC9628931 (Chemical Science, 2022):

Key:
AsAKS1 (BAHD3, 43565_t) = molecular target: T1, AsAKS1 (BAHD3, 43565_t) (Alstonia scholaris, UniProt A0A9E7S5E3); assay: LCMS detection of akuammiline; format: biochemical; conditions: co-substrate rhazimol
T1 sequence (A0A9E7S5E3 1-419): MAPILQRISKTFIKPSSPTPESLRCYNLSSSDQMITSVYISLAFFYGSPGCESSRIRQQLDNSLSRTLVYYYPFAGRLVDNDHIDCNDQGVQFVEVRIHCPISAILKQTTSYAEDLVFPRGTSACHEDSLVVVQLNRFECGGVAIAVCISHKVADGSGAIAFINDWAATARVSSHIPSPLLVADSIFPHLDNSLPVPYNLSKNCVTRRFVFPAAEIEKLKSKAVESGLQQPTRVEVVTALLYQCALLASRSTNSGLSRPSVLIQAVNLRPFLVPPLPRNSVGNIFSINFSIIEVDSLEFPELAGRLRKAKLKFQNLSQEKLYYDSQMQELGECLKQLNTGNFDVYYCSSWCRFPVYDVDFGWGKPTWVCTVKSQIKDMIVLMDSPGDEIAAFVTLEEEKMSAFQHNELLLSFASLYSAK

AsAKS2 (BAHD5, 37058_t) = molecular target: T2, AsAKS2 (BAHD5, 37058_t) (Alstonia scholaris, UniProt A0A9E7LUL3); assay: LCMS detection of akuammiline; format: biochemical; conditions: co-substrate rhazimol
T2 sequence (A0A9E7LUL3 1-450): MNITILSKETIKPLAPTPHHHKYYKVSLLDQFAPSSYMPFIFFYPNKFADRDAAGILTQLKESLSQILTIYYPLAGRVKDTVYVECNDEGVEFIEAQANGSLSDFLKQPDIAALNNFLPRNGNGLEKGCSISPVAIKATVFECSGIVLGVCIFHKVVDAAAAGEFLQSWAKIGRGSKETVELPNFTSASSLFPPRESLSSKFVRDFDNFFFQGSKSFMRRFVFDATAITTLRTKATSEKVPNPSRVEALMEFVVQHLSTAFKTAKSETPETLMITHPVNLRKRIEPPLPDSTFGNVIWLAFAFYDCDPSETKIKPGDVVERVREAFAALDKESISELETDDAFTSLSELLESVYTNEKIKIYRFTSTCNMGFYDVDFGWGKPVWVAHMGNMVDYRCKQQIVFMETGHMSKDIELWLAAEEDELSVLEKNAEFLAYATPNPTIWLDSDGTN

With CC(=O)SCCNC(=O)CCNC(=O)[C@H](O)C(C)(C)COP(=O)(O)OP(=O)(O)OC[C@H]1O[C@@H](n2cnc3c(N)ncnc32)[C@H](O)[C@@H]1OP(=O)(O)O [acetyl-CoA] the “LCMS detection of akuammiline” value (AsAKS1 (BAHD3, 43565_t)) was “The BAHD candidates were assayed by incubation with rhazimol and acetyl-CoA” and the “LCMS detection of akuammiline” value (AsAKS2 (BAHD5, 37058_t)) was “The BAHD candidates were assayed by incubation with rhazimol and acetyl-CoA”.
